Source: patent US20250084095A1, “Aminopyrimidine Derivatives as Cyclin-Dependent Kinase Inhibitors” (Accutar Biotechnology Inc., priority 2023, published 2025)
pIC50: −log10 of the molar value.

Tests used:
CDK1-CYCLIN B = CDK1-CYCLIN B (Homo sapiens (Human), UniProt P06493); assay: CDK protein kinase inhibition by the ADP-Glo Assay, CDK1-CYCLIN B; type: biochemical; conditions: 1000 μM ATP
Method: (§1) This ADP-Glo assay measures ADP formed from a kinase reaction and indirectly quantifies the phosphorylation of peptide substrates by the CDK/cyclin protein complexes. The typical assays were carried out in Nanosyn by combining kinase/cyclin complexes, substrates, compounds, and cofactors (ATP and Mg2+) in a well of a 384-well microtiter plate (Coming 3824) and incubating at 22° C. (Table 4). At the end of the incubation, the reaction is quenched, and conversion is detected by luminescence using the Promega ADP-Glo™ Kinase Assay kit (catalog #V9102). Briefly, 5 μL of 1× enzyme and substrate buffer (or control), 50 nL of 100× compound, and 0.5 μL of 10 mM ATP were sequentially added to a well of a 384-well plate.
(§2) The Final assay buffer mixture contains: 100 mM HEPES, pH 7.5, 0.1% BSA, 0.01% Triton X-100, 1 mM DTT, 5 mM MgCl2, 10 μM Sodium Orthovanadate, 10 μM Beta-Glycerophosphate, 1000 μM Ultra Pure ATP (provided in the Promega ADP-Glo™ Kinase Assay kit), and 1% DMSO (from compound).
(§3) Upon completion, 5 μL of the ADP Glo reagent was added to each well and the plate was further incubated at room temperature for 45 min. 10 μL of the Kinase Detection Reagent was subsequently added to each well. After 10 min of incubation, the plate was read and analyzed on the BioTek Synergy microplate reader using BioTek Gen5 software.

CDK4-CYCLIN D1 = CDK4-CYCLIN D1 (Homo sapiens (Human), UniProt P11802); assay: CDK protein kinase inhibition by the ADP-Glo Assay, CDK4-CYCLIN D1; type: biochemical; conditions: for pIC50: ADP-Glo, 1000 μM ATP; for Selectivity CDK4 vs CDK1 / Selectivity CDK4 vs CDK2 / Selectivity CDK4 vs CDK6 / Selectivity CDK4 vs CDK9: ratio of recombinant kinase IC50s; for Selectivity CDK4 vs CDK1: CDK1 over CDK4; for Selectivity CDK4 vs CDK2: CDK2 over CDK4; for Selectivity CDK4 vs CDK6: CDK6 over CDK4; for Selectivity CDK4 vs CDK9: CDK9 over CDK4
Sequence of CDK4-CYCLIN D1 (P11802 whole entry): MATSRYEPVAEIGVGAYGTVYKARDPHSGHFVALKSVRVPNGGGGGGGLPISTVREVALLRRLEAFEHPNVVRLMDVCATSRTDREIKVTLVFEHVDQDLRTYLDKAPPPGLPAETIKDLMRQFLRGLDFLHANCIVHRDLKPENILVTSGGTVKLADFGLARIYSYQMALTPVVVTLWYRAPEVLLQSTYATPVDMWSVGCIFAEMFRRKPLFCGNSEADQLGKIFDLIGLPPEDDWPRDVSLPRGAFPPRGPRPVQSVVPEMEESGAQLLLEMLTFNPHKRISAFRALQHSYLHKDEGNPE
Sequence of CDK4-CYCLIN D1 (P24385 whole entry partner): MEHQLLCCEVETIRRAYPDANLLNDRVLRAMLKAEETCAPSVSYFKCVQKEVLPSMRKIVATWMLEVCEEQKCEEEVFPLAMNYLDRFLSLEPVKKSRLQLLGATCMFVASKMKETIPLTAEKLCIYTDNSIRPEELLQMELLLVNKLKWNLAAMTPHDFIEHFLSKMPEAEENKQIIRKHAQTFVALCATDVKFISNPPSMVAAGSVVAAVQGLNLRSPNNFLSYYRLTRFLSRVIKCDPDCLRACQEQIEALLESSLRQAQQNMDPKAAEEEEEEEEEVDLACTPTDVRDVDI
Method: as §1, §2, §3

CDK2-CYCLIN E1 = CDK2-CYCLIN E1 (Homo sapiens (Human), UniProt P24941); assay: CDK protein kinase inhibition by the ADP-Glo Assay, CDK2-CYCLIN E1; type: biochemical; conditions: 1000 μM ATP, read-out: CDK2-CYCLIN E, IC50
Method: as §1, §2, §3

CDK6-CYCLIN D3 = CDK6-CYCLIN D3 (Homo sapiens (Human), UniProt Q00534); assay: CDK protein kinase inhibition by the ADP-Glo Assay, CDK6-CYCLIN D3; type: biochemical; conditions: 1000 μM ATP
Sequence of CDK6-CYCLIN D3 (Q00534 whole entry): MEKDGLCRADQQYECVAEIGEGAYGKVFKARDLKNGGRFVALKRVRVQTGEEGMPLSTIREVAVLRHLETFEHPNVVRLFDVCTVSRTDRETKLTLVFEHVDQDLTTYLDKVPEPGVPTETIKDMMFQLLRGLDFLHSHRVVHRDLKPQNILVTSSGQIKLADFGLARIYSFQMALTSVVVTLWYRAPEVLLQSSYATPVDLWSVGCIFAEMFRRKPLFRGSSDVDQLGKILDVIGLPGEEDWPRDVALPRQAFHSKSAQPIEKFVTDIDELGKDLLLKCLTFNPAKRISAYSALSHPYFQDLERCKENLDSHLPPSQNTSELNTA
Sequence of CDK6-CYCLIN D3 (P30281 whole entry partner): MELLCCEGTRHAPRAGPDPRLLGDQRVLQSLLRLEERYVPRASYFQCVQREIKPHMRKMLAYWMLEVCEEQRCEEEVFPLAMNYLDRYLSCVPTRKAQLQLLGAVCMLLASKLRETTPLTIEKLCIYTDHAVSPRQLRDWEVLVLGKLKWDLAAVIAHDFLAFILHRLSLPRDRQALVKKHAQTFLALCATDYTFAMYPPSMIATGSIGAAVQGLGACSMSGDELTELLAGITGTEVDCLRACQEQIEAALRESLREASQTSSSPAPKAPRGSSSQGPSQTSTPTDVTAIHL
Method: as §1, §2, §3

CDK9-CYCLIN T1 = CDK9-CYCLIN T1 (Homo sapiens (Human), UniProt P50750); assay: CDK protein kinase inhibition by the ADP-Glo Assay, CDK9-CYCLIN T1; type: biochemical; conditions: 1000 μM ATP
Sequence of CDK9-CYCLIN T1 (P50750 whole entry): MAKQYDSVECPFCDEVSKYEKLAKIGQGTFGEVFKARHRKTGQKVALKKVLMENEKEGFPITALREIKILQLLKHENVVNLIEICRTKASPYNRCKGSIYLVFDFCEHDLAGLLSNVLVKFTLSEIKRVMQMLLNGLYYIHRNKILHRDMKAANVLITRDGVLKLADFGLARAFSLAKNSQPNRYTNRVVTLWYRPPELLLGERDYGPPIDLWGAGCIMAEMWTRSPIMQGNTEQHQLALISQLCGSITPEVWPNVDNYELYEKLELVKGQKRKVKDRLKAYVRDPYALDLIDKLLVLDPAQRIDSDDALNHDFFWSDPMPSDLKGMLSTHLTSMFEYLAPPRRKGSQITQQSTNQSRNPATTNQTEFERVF
Sequence of CDK9-CYCLIN T1 (O60563 whole entry partner): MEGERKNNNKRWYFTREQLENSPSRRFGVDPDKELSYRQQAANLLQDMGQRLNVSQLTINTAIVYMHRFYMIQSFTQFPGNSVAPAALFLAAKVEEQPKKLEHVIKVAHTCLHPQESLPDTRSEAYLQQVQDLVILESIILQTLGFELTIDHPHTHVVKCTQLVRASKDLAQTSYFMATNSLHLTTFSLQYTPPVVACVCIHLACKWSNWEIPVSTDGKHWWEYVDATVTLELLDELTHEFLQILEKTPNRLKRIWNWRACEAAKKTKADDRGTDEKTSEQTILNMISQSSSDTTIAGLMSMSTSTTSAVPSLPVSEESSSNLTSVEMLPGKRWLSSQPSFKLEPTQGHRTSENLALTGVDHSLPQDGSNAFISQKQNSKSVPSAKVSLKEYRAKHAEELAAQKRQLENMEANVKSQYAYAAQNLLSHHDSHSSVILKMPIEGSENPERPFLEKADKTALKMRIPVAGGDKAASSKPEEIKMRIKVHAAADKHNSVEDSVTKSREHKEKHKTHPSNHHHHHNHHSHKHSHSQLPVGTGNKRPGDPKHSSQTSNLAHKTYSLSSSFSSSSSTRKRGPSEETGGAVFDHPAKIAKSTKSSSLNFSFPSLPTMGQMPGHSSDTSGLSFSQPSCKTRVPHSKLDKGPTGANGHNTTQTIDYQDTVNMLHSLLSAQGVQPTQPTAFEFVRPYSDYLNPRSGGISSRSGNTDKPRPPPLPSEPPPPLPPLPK
Method: as §1, §2, §3

[1] = Human hepatocyte stability assay; conditions: human hepatocytes, 1 μM, 120 min incubation
Method: (§4) Human hepatocyte stability assay was performed at Pharmaron. Human hepatocytes from mixed genders were purchased from BioIVT (Product #X008001). Compounds and positive control were incubated with human hepatocytes. Verapmil was used as a positive control. […] An aliquot of 100 μL of the supernatant was diluted by 100 μL ultra-pure water, and the mixture was used for LC/MS/MS analysis. The percent of parent remaining, intrinsic clearance (CLint) and tr2 were calculated.

[2] = tested on: Phospho-Rb (Ser807/811) in SW1573-CDK6 KO cells; assay: Phospho-Rb expression inhibition in SW1573-CDK6 KO cells quantified by in cell Western; type: cell-based; conditions: Homo sapiens, 24 hours, read-out: SW1573 CDK6 KO pRb IC50
Outline: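 CRISPR CDK4- or CDK6-knockout SW1573 clones were seeded at 20,000 cells/well overnight, then exposed to compound (0.1% DMSO from 1000× stocks) for 24 h at 37° C in 10% FBS medium. Fixed, methanol-permeabilized cells were co-stained for phospho-Rb Ser807/811 and total Rb, with near-infrared in-cell Western read-out.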

in vitro = conditions: both, human, hepatocytes
Method: as §4

Sequence of CDK1-CYCLIN B (P06493 whole entry): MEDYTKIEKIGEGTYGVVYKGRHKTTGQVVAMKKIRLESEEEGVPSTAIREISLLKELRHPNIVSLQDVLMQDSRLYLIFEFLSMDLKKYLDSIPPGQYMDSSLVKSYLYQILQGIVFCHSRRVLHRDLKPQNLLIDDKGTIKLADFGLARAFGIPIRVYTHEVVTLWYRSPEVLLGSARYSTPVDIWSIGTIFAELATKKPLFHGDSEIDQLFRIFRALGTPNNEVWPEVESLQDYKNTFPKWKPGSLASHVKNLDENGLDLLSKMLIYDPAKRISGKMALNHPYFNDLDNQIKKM
Sequence of CDK1-CYCLIN B (P14635 whole entry partner): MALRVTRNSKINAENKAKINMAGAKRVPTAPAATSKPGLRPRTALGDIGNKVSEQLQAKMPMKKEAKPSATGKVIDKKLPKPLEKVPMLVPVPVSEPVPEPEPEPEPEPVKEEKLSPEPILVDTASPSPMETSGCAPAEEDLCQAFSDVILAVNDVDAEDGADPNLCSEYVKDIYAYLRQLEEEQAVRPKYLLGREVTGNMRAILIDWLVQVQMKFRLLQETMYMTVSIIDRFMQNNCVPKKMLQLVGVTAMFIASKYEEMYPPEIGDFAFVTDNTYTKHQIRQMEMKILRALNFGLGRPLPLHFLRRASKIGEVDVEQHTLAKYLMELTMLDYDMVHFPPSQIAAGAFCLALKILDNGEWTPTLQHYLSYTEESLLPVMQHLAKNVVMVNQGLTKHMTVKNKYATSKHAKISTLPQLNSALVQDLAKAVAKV

| pIC50 [2] | CLint scaled at 1 μM (in vitro) [mL/min/kg] | half-life at 1 μM (in vitro) [h] | Hepatic Extraction Ratio (ER) (both, human, 1 μM) | Predicted Hepatic CLH (both, human, 1 μM) [mL/min/kg] | Selectivity for CDK4 over CDK1, CDK2, CDK6 and CDK9 compared with the reference compound (CDK4-CYCLIN D1; versus PF-07220060) | SMILES | pIC50 (CDK1-CYCLIN B) | Scaled-up CLint (hepatocytes) [mL/min/kg] | In vitro CLint (μL/min/10^6 cell) (human, hepatocytes) | pIC50 (CDK4-CYCLIN D1) | Selectivity CDK4 vs CDK1 (CDK4-CYCLIN D1) | Selectivity CDK4 vs CDK2 (CDK4-CYCLIN D1) | Selectivity CDK4 vs CDK6 (CDK4-CYCLIN D1) | Selectivity CDK4 vs CDK9 (CDK4-CYCLIN D1) | pIC50 (CDK2-CYCLIN E1) | pIC50 (CDK6-CYCLIN D3) | pIC50 (CDK9-CYCLIN T1) | t1/2 [1] [h] |
| --- | --- | --- | --- | --- | --- | --- | --- | --- | --- | --- | --- | --- | --- | --- | --- | --- | --- | --- |
| – | – | – | – | – | – | CC(C)n1c(C(C)(C)O)nc2c(F)cc(-c3nc(N[C@@H]4CCOC[C@H]4O)ncc3Cl)cc21 [Reference Compound, PF-07220060, reference compound] | 5.07 | 28.6 | 11.3 | 8.36 | 1,966 | >6,865 | 18 | 430 | < 4.52 | 7.12 | 5.73 | 2.057 |
| ≥ 7.40 | 6.4 | 9.26 | 0.23 | 4.9 | much better selectivity | CC(C)n1c(C(C)(C)O)nc2c(F)cc(-c3nc(N[C@@H]4C[C@H]5CO[C@H](O5)[C@H]4O)ncc3Cl)cc21 [Compound 1, (1S,3R,4S,5R)-3-((5-chloro-4-(4-fluoro-2-(2-hydroxypropan-2-yl)-1-isopropyl-1H-benzo[d]imidazol-6-yl)pyrimidin-2-yl)amino)-6,8-dioxabicyclo[3.2.1]octan-4-ol] | 4.58 | – | 2.5 | 8.50 | 8,317 | >9,524 | 20 | 1,549 | < 4.52 | 7.20 | 5.31 | – |
